Experimental data from patent US10131652B2, “Pyrimidinyloxy benzene derivatives as herbicides” (E. I. DU PONT DE NEMOURS AND COMPANY, priority 2014, dated 2018).

Assays:
Experiment in all cases: Test D pre-/postemergence plant response
Type in all cases: in vivo
corn (Zea mays) = details: Zea mays, pre-emergence, Preemergence
Method in brief: (§1)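 Plants are held in a greenhouse 13 to 15 days after spraying, then injury is rated by eye relative to controls on a 0 to 100 scale. Treatments are preemergence on freshly sown loam/sand pots or postemergence at 1- to 4-leaf stage in peat-based medium; surfactant-containing solvent formulation.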

[1] = system: galium (catchweed bedstraw, Galium aparine); details: Galium, pre-emergence, Preemergence
Method in brief: as §1

[2] = system: pigweed (Amaranthus retroflexus); details: Amaranthus retroflexus, pre-emergence, Preemergence
Method in brief: as §1

[3] = system: velvetleaf (Abutilon theophrasti); details: Abutilon theophrasti, pre-emergence, Preemergence
Method in brief: as §1

[4] = system: giant foxtail (Setaria faberii); details: Setaria faberi, pre-emergence, Preemergence
Method in brief: as §1

[5] = system: barnyardgrass (Echinochloa crus-galli); details: Echinochloa crus-galli, pre-emergence, Preemergence
Method in brief: as §1

soybean (Glycine max) = details: Glycine max, pre-emergence, Preemergence
Method in brief: as §1

[6] = system: blackgrass (Alopecurus myosuroides); details: Alopecurus myosuroides, pre-emergence, Preemergence
Method in brief: as §1

[7] = system: oilseed rape (Brassica napus); details: Brassica napus, pre-emergence, Preemergence
Method in brief: as §1

N#Cc1cccc(Oc2ncc(Cl)cn2)c1-c1cc(C(F)(F)F)ccn1 [Compound 158, 5-chloro-2-[3-cyano-2-[4-(trifluoromethyl)-2-pyridinyl]phenoxy]pyrimidine] gave a plant injury at 125 g/ha (corn (Zea mays); 125 g ai/ha, read-out: Plant response rating (scale 0 to 100), Corn) of 15%, a Corn plant response rating (crop injury, 0 = no effect, 100 = complete kill) at 16 g/ha (corn (Zea mays); 16 g ai/ha, scale 0 to 100 (0 no effect, 100 complete control)) of 0% and a Corn plant response rating (crop injury, 0 = no effect, 100 = complete kill) at 31 g/ha (corn (Zea mays); 31 g ai/ha, scale 0 to 100 (0 no effect, 100 complete control)) of 0%. It also gave a Corn plant response rating (crop injury, 0 = no effect, 100 = complete kill) at 62 g/ha (corn (Zea mays); 62 g ai/ha, scale 0 to 100 (0 no effect, 100 complete control)) of 5%, a pest or weed control at 125 g/ha ([1]; 125 g ai/ha, read-out: Plant response rating (scale 0 to 100), Galium) of 100% and a pest or weed control at 16 g/ha ([1]; 16 g ai/ha, scale 0 to 100 (0 no effect, 100 complete control), read-out: Plant response rating, Galium) of 0%. The pest or weed control at 31 g/ha ([1]; 31 g ai/ha, scale 0 to 100 (0 no effect, 100 complete control), read-out: Plant response rating, Galium) was 50%, the pest or weed control at 62 g/ha ([1]; 62 g ai/ha, scale 0 to 100 (0 no effect, 100 complete control), read-out: Plant response rating, Galium) was 100% and the pest or weed control at 125 g/ha ([2]; 125 g ai/ha, read-out: Plant response rating (scale 0 to 100), Pigweed) was 100%. The pest or weed control at 16 g/ha ([2]; 16 g ai/ha, scale 0 to 100 (0 no effect, 100 complete control), read-out: Plant response rating, Pigweed) was 70%, the pest or weed control at 31 g/ha ([2]; 31 g ai/ha, scale 0 to 100 (0 no effect, 100 complete control), read-out: Plant response rating, Pigweed) was 75% and the pest or weed control at 62 g/ha ([2]; 62 g ai/ha, scale 0 to 100 (0 no effect, 100 complete control), read-out: Plant response rating, Pigweed) was 100%. It also gave a pest or weed control at 125 g/ha ([3]; 125 g ai/ha, read-out: Plant response rating (scale 0 to 100), Velvetleaf) of 70%, a pest or weed control at 16 g/ha ([3]; 16 g ai/ha, scale 0 to 100 (0 no effect, 100 complete control), read-out: Plant response rating, Velvetleaf) of 35% and a pest or weed control at 31 g/ha ([3]; 31 g ai/ha, scale 0 to 100 (0 no effect, 100 complete control), read-out: Plant response rating, Velvetleaf) of 25%. It also gave a pest or weed control at 62 g/ha ([3]; 62 g ai/ha, scale 0 to 100 (0 no effect, 100 complete control), read-out: Plant response rating, Velvetleaf) of 40%, a pest or weed control at 125 g/ha ([4]; 125 g ai/ha, read-out: Plant response rating (scale 0 to 100), Foxtail, Giant) of 100% and a pest or weed control at 16 g/ha ([4]; 16 g ai/ha, scale 0 to 100 (0 no effect, 100 complete control), read-out: Plant response rating, Foxtail, Giant) of 5%. It also gave a pest or weed control at 31 g/ha ([4]; 31 g ai/ha, scale 0 to 100 (0 no effect, 100 complete control), read-out: Plant response rating, Foxtail, Giant) of 55%, a pest or weed control at 62 g/ha ([4]; 62 g ai/ha, scale 0 to 100 (0 no effect, 100 complete control), read-out: Plant response rating, Foxtail, Giant) of 85% and a pest or weed control at 125 g/ha ([5]; 125 g ai/ha, read-out: Plant response rating (scale 0 to 100), Barnyardgrass) of 20%. For the same compound, the pest or weed control at 16 g/ha ([5]; 16 g ai/ha, scale 0 to 100 (0 no effect, 100 complete control), read-out: Plant response rating, Barnyardgrass) was 0%, the pest or weed control at 31 g/ha ([5]; 31 g ai/ha, scale 0 to 100 (0 no effect, 100 complete control), read-out: Plant response rating, Barnyardgrass) was 5% and the pest or weed control at 62 g/ha ([5]; 62 g ai/ha, scale 0 to 100 (0 no effect, 100 complete control), read-out: Plant response rating, Barnyardgrass) was 35%. The plant injury at 125 g/ha (soybean (Glycine max); 125 g ai/ha, read-out: Plant response rating (scale 0 to 100), Soybean) was 95%, the plant injury at 16 g/ha (soybean (Glycine max); 16 g ai/ha, scale 0 to 100 (0 no effect, 100 complete control), read-out: Plant response rating, Soybean) was 0% and the plant injury at 31 g/ha (soybean (Glycine max); 31 g ai/ha, scale 0 to 100 (0 no effect, 100 complete control), read-out: Plant response rating, Soybean) was 25%. It also gave a plant injury at 62 g/ha (soybean (Glycine max); 62 g ai/ha, scale 0 to 100 (0 no effect, 100 complete control), read-out: Plant response rating, Soybean) of 45%, a pest or weed control at 125 g/ha ([6]; 125 g ai/ha, read-out: Plant response rating (scale 0 to 100), Blackgrass) of 90% and a pest or weed control at 16 g/ha ([6]; 16 g ai/ha, scale 0 to 100 (0 no effect, 100 complete control), read-out: Plant response rating, Blackgrass) of 0%. The pest or weed control at 31 g/ha ([6]; 31 g ai/ha, scale 0 to 100 (0 no effect, 100 complete control), read-out: Plant response rating, Blackgrass) was 15%, the pest or weed control at 62 g/ha ([6]; 62 g ai/ha, scale 0 to 100 (0 no effect, 100 complete control), read-out: Plant response rating, Blackgrass) was 50% and the plant injury at 125 g/ha ([7]; 125 g ai/ha, read-out: Plant response rating (scale 0 to 100), Oilseed Rape) was 98%. The plant injury at 16 g/ha ([7]; 16 g ai/ha, scale 0 to 100 (0 no effect, 100 complete control), read-out: Plant response rating, Oilseed Rape) was 40%, the plant injury at 31 g/ha ([7]; 31 g ai/ha, scale 0 to 100 (0 no effect, 100 complete control), read-out: Plant response rating, Oilseed Rape) was 50% and the plant injury at 62 g/ha ([7]; 62 g ai/ha, scale 0 to 100 (0 no effect, 100 complete control), read-out: Plant response rating, Oilseed Rape) was 90%.
